According to patent publication US7208290B2, “Methods of co-expressing umami taste receptors and chimeric Gα15 variants” (Senomyx, Inc., priority 2002, dated 2007):

Biological target: T1, rat T1R1/T1R3 umami taste receptor (Rattus norvegicus, UniProt Q9Z0R8)
T1 construct: expressed in transfected cells; host or cells: HEK-293 cells, transient transfection, pEAK10 expression vector
T1 sequence (Q9Z0R8 20-840): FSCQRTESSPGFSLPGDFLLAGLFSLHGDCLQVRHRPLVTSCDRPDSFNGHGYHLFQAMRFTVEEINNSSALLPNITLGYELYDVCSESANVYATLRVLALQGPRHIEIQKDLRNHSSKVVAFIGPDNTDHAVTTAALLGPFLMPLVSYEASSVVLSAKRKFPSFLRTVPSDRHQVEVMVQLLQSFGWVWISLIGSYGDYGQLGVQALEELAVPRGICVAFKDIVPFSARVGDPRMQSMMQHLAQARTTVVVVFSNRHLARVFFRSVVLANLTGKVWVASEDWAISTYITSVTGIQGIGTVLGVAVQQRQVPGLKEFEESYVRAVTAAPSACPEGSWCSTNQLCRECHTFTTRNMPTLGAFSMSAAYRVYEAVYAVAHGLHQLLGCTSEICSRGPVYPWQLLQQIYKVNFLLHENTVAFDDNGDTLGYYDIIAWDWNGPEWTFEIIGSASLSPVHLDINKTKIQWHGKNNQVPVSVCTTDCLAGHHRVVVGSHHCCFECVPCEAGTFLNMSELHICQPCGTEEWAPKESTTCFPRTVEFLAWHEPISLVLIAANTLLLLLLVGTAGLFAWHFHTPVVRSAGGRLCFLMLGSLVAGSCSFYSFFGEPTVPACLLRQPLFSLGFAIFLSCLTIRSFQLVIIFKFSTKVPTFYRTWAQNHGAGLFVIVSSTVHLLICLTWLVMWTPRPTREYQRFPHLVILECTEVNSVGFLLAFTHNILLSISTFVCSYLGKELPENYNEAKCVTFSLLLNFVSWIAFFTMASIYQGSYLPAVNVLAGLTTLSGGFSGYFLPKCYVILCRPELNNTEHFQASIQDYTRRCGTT
T1 sequence (Q923K1 21-858 partner): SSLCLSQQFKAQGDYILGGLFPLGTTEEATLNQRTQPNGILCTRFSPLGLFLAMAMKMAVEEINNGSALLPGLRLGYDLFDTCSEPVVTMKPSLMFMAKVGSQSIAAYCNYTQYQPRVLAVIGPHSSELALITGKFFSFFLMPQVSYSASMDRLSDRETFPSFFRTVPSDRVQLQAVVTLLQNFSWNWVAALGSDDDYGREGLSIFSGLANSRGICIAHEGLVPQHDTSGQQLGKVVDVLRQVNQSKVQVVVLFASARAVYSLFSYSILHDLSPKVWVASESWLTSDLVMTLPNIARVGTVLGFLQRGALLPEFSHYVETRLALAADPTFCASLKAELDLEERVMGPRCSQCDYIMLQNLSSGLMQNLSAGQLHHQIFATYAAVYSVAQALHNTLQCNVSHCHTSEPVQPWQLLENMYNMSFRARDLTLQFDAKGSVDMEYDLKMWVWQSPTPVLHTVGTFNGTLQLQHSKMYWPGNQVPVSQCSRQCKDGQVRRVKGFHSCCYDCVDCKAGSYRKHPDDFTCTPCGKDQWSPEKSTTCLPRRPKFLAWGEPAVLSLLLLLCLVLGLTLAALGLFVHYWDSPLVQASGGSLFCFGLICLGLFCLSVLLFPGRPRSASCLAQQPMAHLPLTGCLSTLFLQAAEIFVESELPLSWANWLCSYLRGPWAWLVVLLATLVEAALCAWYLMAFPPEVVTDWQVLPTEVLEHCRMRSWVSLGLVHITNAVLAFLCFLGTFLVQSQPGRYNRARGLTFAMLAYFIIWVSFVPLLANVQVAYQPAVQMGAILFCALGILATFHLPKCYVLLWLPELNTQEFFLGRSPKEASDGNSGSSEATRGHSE
Assay: calcium imaging in HEK-293 cells transiently transfected with rat T1R1, T1R3 and Gα15 or Gα15/i1
Type: cell-based
Conditions: HEK-293 transiently transfected with rat T1R1, T1R3 and Gα15/i1; in the presence of 2.5 mM IMP
Protocol: Rat T1R2 and T1R3 expression constructs were generated using the pEAK10 expression vector (Edge Biosystems). (Rat T1R1, T1R2, and T1R3 nucleic acid sequences are described in U.S. Provisional Application No. 60/339,472, incorporated by reference in its entirety herein). HEK-293 cells were grown and maintained at 37° C. in Dulbecco's Modified Eagle Medium (DMEM) supplemented with 10% FBS and MEM non-essential amino acids (Gibco BRL). For calcium-imaging experiments, cells were first seeded onto 24-well tissue-culture plates (approximately 100,000 cells per well), and transfected using Mirus Translt-293 (PanVera). Transfection efficiencies, which were estimated by cotransfection with an RFP expression vector, were typically approximately 70%. […] Calcium mobilization was monitored on an Axiovert S100 microscope equipped with an inverted 10×/0.5 LWD piano fluor objective (Zeiss) and a cooled CCD camera (Princeton Instruments). Fluorescence images were acquired at 480 nm excitation and 535 nm emission, and analyzed with Imaging Workbench 4.0 software (Axon Instruments). T1R receptor activity was quantitated by counting the number of responding cells 30 seconds after stimulus addition. […]

Row | SMILES | response of cells (intracellular calcium increase, number of responding cells) to umami taste stimuli
1 | N[C@@H](CC(=O)O)C(=O)O [L-aspartate] | responded
2 | N[C@@H](CCC(=O)O)C(=O)O [L-glutamate] | responded
